# Test results reported in patent US20260001853A1, “ASCORBIC ACID DERIVATIVE OR SALT THEREOF, AND COSMETIC THEREOF” (SEIWA KASEI COMPANY, LIMITED, priority 2022, published 2026).
# Assays:
# [1] = Stability test (residual rate by HPLC, odor, coloring); type: physicochemical; details: 1% aqueous solution; for Coloring / Odor: total score of 10 panelists
# Protocol: With a dilute potassium hydroxide aqueous solution, 1% aqueous solution of each test sample was adjusted to pH 6, placed in a 50 mL screw tube, sealed, […], and then subjected to HPLC measurement (using a liquid chromatograph manufactured by Shimadzu Corporation) to determine the residual rate from the peak area. The residual rate, odor, and coloring degree were evaluated according to the following methods and criteria.
# Residual rate: • ⊚: 90% or more • ◯: 80% or more, less than 90% • Δ: 60% or more, less than 80% • x: 20% or more, less than 60% • xx: Less than 20%
# Evaluation was made by 10 panelists according to the following criteria. • 3: Almost odorless • 2: There is a slight strange odor. • 1: A strong odor is detected.
# Based on the evaluation results, the following classification was made: • ⊚: Total score of 10 panelists is 25 or more • ◯: Total score of 10 panelists is 20-24 • Δ: Total score of 10 panelists is 16-19 • x: The total score of 10 panelists is 15 or less
# Evaluation was made by 10 panelists according to the following criteria. • 3: Almost no change compared to immediately after preparation. • 2: Color changes compared to immediately after preparation. • 1: Strongly colored compared to immediately after preparation.
# Based on the evaluation results, the following classification was made: • ◯: Total score of 10 panelists is 25 or more • Δ: Total score of 10 panelists is 16-24 • x: The total score of 10 panelists is 15 or less
# [2] = system: Normal human dermal fibroblasts; assay: Collagen production promoting effect (ELISA of supernatant); type: cell-based; details: amount of collagen produced, % with control group taken as 100%; sample at 10 mmol/L or less, 48 hours, N=3
# Protocol: Normal human dermal fibroblasts were prepared in D-MEM containing 5% (v/v) fetal bovine serum to a cell density of […] cells/well, and pre incubated on a 96-well plate for 24 hours. After removing the medium, samples prepared to a predetermined concentration in D-MEM containing 5% (v/v) fetal bovine serum were added to each well and cultured for 48 hours. After completion of the culture, the amount of free collagen in the supernatant was quantified by ELISA method. The measurement was performed with N=3.
# (§1) The amount of collagen produced when the samples were measured at a concentration of 10 mmol/L or less was compared with that of the control group, and the results (% values when the control group is taken as 100%) are shown in Tables 15 to 17 based on the following criteria. • <100%: ± • 100-120%: + • 120%: ++
# B16 melanoma 4A5 cells = assay: Melanin production inhibitory effect (theophylline-induced melanin production); type: cell-based, mouse; details: melanin production inhibition rate, sample at a concentration of 10 mM or less, 3 days culture, theophylline 1 mmol/L, N=4
# Protocol: As a test of the whitening effect, the effect on theophylline-induced melanin production in B16 melanoma 4A5 cells was evaluated for the ascorbic acid derivatives of the present invention according to the following procedure. A similar evaluation was also performed for a known ascorbic acid derivative for comparison. The results are shown in Tables 9 to 11. • (1) B16 mouse melanoma 4A5 cells were seeded in a 48-well plate at a cell density of 8.0×10^3 cells/well. • (2) After culturing for 24 hours in Dulbecco's modified Eagle's medium (manufactured by SIGMA, hereinafter abbreviated as “D-MEM”) containing 10% fetal bovine serum, the medium was replaced with D-MEM containing 10% fetal bovine serum containing theophylline (final concentration 1 mmol/L) and a specified concentration of a sample. • (3) After culturing for 3 days in the presence of the sample, the medium was removed using an aspirator, distilled water was added, and the cells were disrupted by ultrasonication. • (4) The amount of protein was then quantified using a BCA protein assay kit (manufactured by PIERCE), and the amount of melanin produced was measured by an alkali solubilization method. Sodium hydroxide was added to the cell lysate to a final concentration of 1 mol/L, and the solution was dissolved by heating (60° C., 30 minutes), thereafter the absorbance at 405 nm was measured using a microplate reader. The amount of melanin was calculated from a calibration curve prepared using synthetic melanin (SIGMA) as a standard. The amount of melanin per unit protein was calculated by dividing the amount of melanin by the amount of protein. • (5) The melanin production inhibition rate was calculated using the following formula.
# [In the formula, A represents the amount of melanin per unit protein (g/g) when the sample was added, B represents the amount of melanin per unit protein (g/g) in the normal group, and C represents the amount of melanin per unit protein (g/g) in the control group.]
# The melanin production inhibition rate when the sample was measured at a concentration of 10 mM or less is expressed as follows. The measurement was performed with N=4. • <20%: ± • 20-40%: + • 40-60%: ++ • 60-100%: +++
# [3] = system: Normal human dermal fibroblasts (NHDF); assay: Hyaluronic acid production promoting effect (ELISA of supernatant); type: cell-based; details: amount of hyaluronic acid produced, % with control group taken as 100%; sample at 10 mmol/L or less, 48 hours, N=3
# Protocol: Normal human dermal fibroblasts (NHDF) were prepared in D-MEM containing 5% (v/v) fetal bovine serum to a cell density of 2.5× 10^4 cells/well, and then pre-incubated on a 96-well plate for 24 hours. After removing the medium, samples prepared in serum-free D-MEM were added to each well and cultured for 48 hours. After the culture was completed, the amount of hyaluronic acid in the supernatant was quantified by ELISA method. The measurement was performed with N=3.
# as §1, with “of hyaluronic acid” for “of collagen”, “Tables 18” for “Tables 15”, “to 20” for “to 17”, “• 120-150%:” for “• 120%:”, “++ • 150%: +++” for “++”
# [4] = pH 6, stored at 50° C., two weeks later
SMILES,Collagen production promoting effect [2],Melanin production inhibition effect (B16 melanoma 4A5 cells),Hyaluronic acid production promoting effect [3],further results
O=C1O[C@H]([C@@H](O)CO)C(O)=C1O [Ascorbic acid],–,–,–,"Residual rate ([1]; pH 6, 50° C., initial): ⊚ (⊚: 90% or more); Coloring ([1]; pH 6, 50° C., initial): ◯ (◯: Total score of 10 panelists is 25 or more); Odor ([1]; pH 6, 50° C., initial): ◯ (◯: Total score of 10 panelists is 20-24); Residual rate [1, 4]: Δ (Δ: 60% or more, less than 80%); Coloring [1, 4]: Δ (Δ: Total score of 10 panelists is 16-24); Odor [1, 4]: Δ (Δ: Total score of 10 panelists is 16-19)"
"CCCCOC1=C(OCC(C)(C)O)C(=O)O[C@@H]1[C@@H](O)CO [Synthesis Example 4, 2-O-(2-hydroxyisobutyl)-3-O-butylascorbic acid]",++ (120%: ++),–,–,–
"CCCCCCOC1=C(OCC(C)(C)O)C(=O)O[C@@H]1[C@@H](O)CO [Synthesis Example 5, 2-O-(2-hydroxyisobutyl)-3-O-hexyl ascorbic acid]",++ (120%: ++),+ (20-40%: +),–,–
"CCCCCCCCOC1=C(OCC(C)(C)O)C(=O)O[C@@H]1[C@@H](O)CO [Synthesis Example 6, 2-O-(2-hydroxyisobutyl)-3-O-octyl ascorbic acid]",++ (120%: ++),+++ (60-100%: +++),–,–
"CCCCCCCCCCOC1=C(OCC(C)(C)O)C(=O)O[C@@H]1[C@@H](O)CO [Synthesis Example 7, 2-O-(2-hydroxyisobutyl)-3-O-decyl ascorbic acid]",++ (120%: ++),+++ (60-100%: +++),–,–
"CCCCCCCCCCCCCCOC1=C(OCC(C)(C)O)C(=O)O[C@@H]1[C@@H](O)CO [Synthesis Example 9, 2-O-(2-hydroxyisobutyl)-3-O-tetradecyl ascorbic acid]",++ (120%: ++),++ (40-60%: ++),+++ (150%: +++),–
"CCCCCCCCCCCCCCCCOC1=C(OCC(C)(C)O)C(=O)O[C@@H]1[C@@H](O)CO [Synthesis Example 10, 2-O-(2-hydroxyisobutyl)-3-O-hexadecylascorbic acid]",–,+ (20-40%: +),–,–
"C=CCOC1=C(OCC(C)(C)O)C(=O)O[C@@H]1[C@@H](O)CO [Synthesis Example 11, 2-O-(2-hydroxyisobutyl)-3-O-allylascorbic acid]",++ (120%: ++),+++ (60-100%: +++),++ (120-150%: ++),–
"CC(C)(O)COC1=C(OCc2ccccc2)[C@@H]([C@@H](O)CO)OC1=O [Synthesis Example 12, 2-O-(2-hydroxyisobutyl)-3-O-benzyl ascorbic acid]",++ (120%: ++),+++ (60-100%: +++),+++ (150%: +++),–
"CC(C)(O)COC1=C(OCC(O)CO)[C@@H]([C@@H](O)CO)OC1=O (stereo partly shown) [Synthesis Example 13, 2-O-(2-hydroxyisobutyl)-3-O-glyceryl ascorbic acid]",++ (120%: ++),++ (40-60%: ++),++ (120-150%: ++),–
"CCCCC(CC)COCC(O)COC1=C(OCC(C)(C)O)C(=O)OC1C(O)CO (stereo not shown) [Synthesis Example 15, 2-O-(2-hydroxyisobutyl)-3-O-(2-hydroxy-3-O-ethylhexyl) ascorbic acid]",++ (120%: ++),+ (20-40%: +),–,–
"CCCCCCCCCCCCOCC(O)COC1=C(OCC(C)(C)O)C(=O)OC1C(O)CO (stereo not shown) [Synthesis Example 16, 2-O-(2-hydroxyisobutyl)-3-O-(2-hydroxy-3-O-dodecyl) ascorbic acid]",–,+ (20-40%: +),++ (120-150%: ++),–
"CCCCOC1=C(OCC(C)(C)O)[C@@H]([C@@H](O)CO)OC1=O [Synthesis Example 19, 2-O-butyl-3-O-(2-hydroxyisobutyl) ascorbic acid]",++ (120%: ++),+ (20-40%: +),–,–
"CCCCCCOC1=C(OCC(C)(C)O)[C@@H]([C@@H](O)CO)OC1=O [Synthesis Example 20, 2-O-hexyl-3-O-(2-hydroxyisobutyl) ascorbic acid]",++ (120%: ++),++ (40-60%: ++),–,–
"CCCCCCCCOC1=C(OCC(C)(C)O)[C@@H]([C@@H](O)CO)OC1=O [Synthesis Example 21, 2-O-octyl-3-O-(2-hydroxyisobutyl) ascorbic acid]",++ (120%: ++),++ (40-60%: ++),+++ (150%: +++),–
"CCCCCCCCCCOC1=C(OCC(C)(C)O)[C@@H]([C@@H](O)CO)OC1=O [Synthesis Example 22, 2-O-decyl-3-O-(2-hydroxyisobutyl) ascorbic acid]",–,++ (40-60%: ++),–,–
"CCCCCCCCCCCCOC1=C(OCC(C)(C)O)[C@@H]([C@@H](O)CO)OC1=O [Synthesis Example 23, 2-O-dodecyl-3-O-(2-hydroxyisobutyl) ascorbic acid]",++ (120%: ++),+++ (60-100%: +++),++ (120-150%: ++),–
"CC(C)(O)COC1=C(OCC(O)CO)C(=O)O[C@@H]1[C@@H](O)CO (stereo partly shown) [Synthesis Example 28, 2-O-glyceryl-3-O-(2-hydroxyisobutyl) ascorbic acid]",–,+ (20-40%: +),++ (120-150%: ++),–
"CCCCOCC(O)COC1=C(OCC(C)(C)O)C(C(O)CO)OC1=O (stereo not shown) [Synthesis Example 29, 2-O-(2-hydroxy-3-O-butyl)-3-O-(2-hydroxyisobutyl) ascorbic acid]",++ (120%: ++),–,–,–
"CCCCC(CC)COCC(O)COC1=C(OCC(C)(C)O)C(C(O)CO)OC1=O (stereo not shown) [Synthesis Example 30, 2-O-(2-hydroxy-3-O-ethylhexyl)-3-O-(2-hydroxyisobutyl) ascorbic acid]",–,+ (20-40%: +),+++ (150%: +++),–
